Results on 2 substances are retold here after US12281138B2, “5′-cap-trinucleotide- or higher oligonucleotide compounds and their use in stabilizing RNA, expressing proteins in therapy” (BioNTech RNA Pharmaceuticals GmbH, priority 2018, dated 2025).

For assay [1], the system named is human immature dendritic cells (hiDCs). As to the kind of experiment: Luciferase reporter mRNA translation in human immature dendritic cells. It counts as cell-based. The following applies: co-transcriptionally capped Luciferase mRNA, 700 ng per well, liposome formulated, recorded over 72 h. As for the experimental part: As a functional assay of cap analog incorporation, and as a test of translatability of the resulting cap structure, differently capped mRNA encoding a Luciferase reporter was transfected into human immature dendritic cells (hiDCs). For that, 700 ng capped RNA per well were formulated with liposomes as described in Kranz et al., Nature 534, 396-401 (2016), and added to a 96-well containing 5E04 hiDCs. Subsequently, reporter activity was recorded over 72 h.

The subject of assay [2] is Balb/c mice. Put plainly: Luciferase mRNA expression in vivo, bioluminescence imaging after intravenous application. To be noted: 10 μg RNA per mouse, i.v.

As to “m2^7,2′-OGppSpm^2′-OGpG [Compound 1 (D1)]”, in assay [1], the “translation in hiDCs (luciferase reporter activity) relative to mRNA capped with the corresponding D1 or D2 diastereomer of beta-S-ARCA” value is reported as “comparable levels”. In the case of m2^7,2′-OGppSpm^2′-OGpG [Compound 1], the “in vivo luciferase protein levels compared to all cap0 RNAs” value in assay [2] (all time points) was “always higher levels”. The “in vivo luciferase protein levels compared to enzymatically capped cap1 mRNA” value in assay [2] (at the other time points) is “only slightly lower levels”.
